Experimental data published in PMC7186572, “Functional Identification and Structural Analysis of a New Lipoate Protein Ligase in Mycoplasma hyopneumoniae” (Frontiers in Cellular and Infection Microbiology, 2020).

Key:
[1] = target: T1, large domain of Mhp-Lpl (ML) (Mesomycoplasma hyopneumoniae, UniProt Q4AA29); assay: western blot of GcvH lipoylation with anti-lipoic acid antibody; assay type: biochemical; conditions: 1 mM lipoic acid, 5 mM ATP, 1 mM MgCl2, 5 mM DTT, 20 μM apo Mhp H as acceptor, pH 7.0, 37 °C, 4 h
T1 construct: gene lplA-1; large N-terminal domain, residues 1-254, C-terminal His tag, pET32a, expressed in E. coli BL21(DE3)
T1 sequence (Q4AA29 1-256 limits assumed): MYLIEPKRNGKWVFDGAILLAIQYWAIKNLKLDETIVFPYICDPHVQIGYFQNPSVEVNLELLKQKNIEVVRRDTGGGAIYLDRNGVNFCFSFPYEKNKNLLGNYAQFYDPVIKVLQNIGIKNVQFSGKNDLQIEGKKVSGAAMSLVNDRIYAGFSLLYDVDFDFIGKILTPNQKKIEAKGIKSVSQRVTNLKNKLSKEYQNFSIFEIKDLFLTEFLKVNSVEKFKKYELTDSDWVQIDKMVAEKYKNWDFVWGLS

Mhp-Lpl [2] = target: T2, Mhp-Lpl (Mesomycoplasma hyopneumoniae, UniProt Q4AA29); assay: as above; assay type: biochemical; conditions: 1 mM lipoic acid, 5 mM ATP, 1 mM MgCl2, 5 mM DTT, 20 μM apo Mhp H as acceptor, pH 7.0, 37 °C, 4 h
T2 construct: gene lplA-1; full length, 343 residues, C-terminal His tag, pET32a NdeI/XhoI, synthetic E. coli codon-optimised gene (TGA to TGG), expressed in E. coli BL21(DE3), about 40 kDa
T2 sequence (Q4AA29 1-342 limits assumed): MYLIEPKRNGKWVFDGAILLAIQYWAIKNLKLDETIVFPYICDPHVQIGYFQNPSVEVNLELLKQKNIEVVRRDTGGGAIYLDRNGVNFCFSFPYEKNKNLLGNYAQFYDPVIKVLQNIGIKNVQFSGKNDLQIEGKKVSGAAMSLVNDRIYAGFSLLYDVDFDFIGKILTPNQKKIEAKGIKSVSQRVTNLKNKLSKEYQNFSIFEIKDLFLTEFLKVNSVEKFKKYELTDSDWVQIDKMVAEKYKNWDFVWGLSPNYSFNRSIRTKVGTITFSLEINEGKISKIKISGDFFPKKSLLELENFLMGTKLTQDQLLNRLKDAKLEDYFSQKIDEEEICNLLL

E. coli LplA = target: T3, E. coli LplA (Escherichia coli, UniProt P32099); assay: as above; assay type: biochemical; conditions: 1 mM lipoic acid, 5 mM ATP, 1 mM MgCl2, 5 mM DTT, 20 μM apo E. coli GcvH as acceptor, pH 7.0, 37 °C, 4 h
T3 construct: full length, C-terminal His tag, pET32a NdeI/XhoI, expressed in E. coli BL21(DE3)
T3 sequence (P32099 2-338): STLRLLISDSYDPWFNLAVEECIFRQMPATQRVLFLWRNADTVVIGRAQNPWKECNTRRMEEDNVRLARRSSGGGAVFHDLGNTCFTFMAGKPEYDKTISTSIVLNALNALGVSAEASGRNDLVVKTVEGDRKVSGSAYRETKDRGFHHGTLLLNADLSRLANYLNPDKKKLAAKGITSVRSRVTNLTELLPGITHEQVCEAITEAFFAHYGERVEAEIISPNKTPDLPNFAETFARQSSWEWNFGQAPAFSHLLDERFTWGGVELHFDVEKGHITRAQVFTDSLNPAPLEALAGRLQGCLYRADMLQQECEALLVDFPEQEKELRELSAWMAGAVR

Mhp-Lpl [3] = target: T2, Mhp-Lpl; assay: X-ray crystallography, […] Å; assay type: binding; conditions: enzyme reacted with ATP and lipoic acid, then further purified and crystallised; partial occupancy; active site; reaction intermediate; an unidentified AMP-fatty acid co-purifies from E. coli

Row | SMILES | western blot of GcvH lipoylation with anti-lipoic acid antibody [1] | western blot of GcvH lipoylation with anti-lipoic acid antibody (Mhp-Lpl [2]) | western blot of GcvH lipoylation with anti-lipoic acid antibody (E. coli LplA) | X-ray crystallography, 2.45 Å (Mhp-Lpl [3])
1 | O=C(O)CCCC[C@@H]1CCSS1 (racemic) [lipoic acid] | the large domain is able to catalyze Mhp H lipoylation | lipoic acid was successfully transferred to the Mhp H protein by the MHP_RS01680-encoded protein | E. coli LplA could successfully transfer lipoic acid to E. coli GcvH | –
2 | Nc1ncnc2c1ncn2[C@@H]1O[C@H](COP(=O)(O)OP(=O)(O)OP(=O)(O)O)[C@@H](O)[C@H]1O [ATP] | including activation of lipoic acid with ATP to form lipoyl-AMP | Mhp-Lpl catalyzes the ATP-dependent activation of lipoate to lipoyl-AMP | – | –
3 | Nc1ncnc2c1ncn2[C@@H]1O[C@H](COP(=O)(O)OC(=O)CCCC[C@@H]2CCSS2)[C@@H](O)[C@H]1O [lipoyl-AMP] | – | – | – | lipoyl-AMP could be modeled into the density, despite its partial occupancy
